According to patent publication US20030086986A1, “Ophthalmic, pharmaceutical and other healthcare preparations with naturally occurring plant compounds, extracts and derivatives” (priority 1998, published 2003):
Like-named read-outs stand apart in the source and are kept apart here.

Experiments:
Assay type in all cases: cell-based
[1] = system: Serratia marcescens; assay: Log kill test of disinfectant formulae (6 hours)
Description: (§1) Disinfectant and preservative tests are most often performed by challenging the preparation with a concentrated inoculum (e.g., 10^5-10^6 colony forming units (cfu)/ml) of each test organism. Over time samples are taken and plated on a growth medium to estimate the number of live organisms remaining at each time point.
The method for evaluating the effectiveness of a disinfectant for contact lenses generally requires measuring the ability of the agent to reduce the numbers of viable infective organisms during a period of time consistent with the normal period of storage of contact lenses between wearing times. This reduction of numbers of organisms is typically reported in terms of the change in the common logarithm (base 10 logarithm) of the microbial population as a result of exposure to the antimicrobial or disinfecting agent. For example, if the agent has effected a reduction in the concentration of a particular organisms in a challenge solution from 10^6 colony forming units (cfu) per milliliter (ml) to 10^2 cfu/ml within six hours of exposure then the change, or “log reduction”, of the organism as a result of exposure to the agent would be 4.0 (logs). In other words, the number of viable organisms have been reduced to one ten-thousandth of the original level. […]

[2] = system: L929 cell; assay: Cytotoxicity assay: high water-content soft contact lenses cycled five days in test solution, then L929 cell cytotoxicity model
Method: The present inventors reported earlier on the anti-cytotoxic properties of certain natural products. Experiments were under taken to confirm the anti-cytotoxic effects of Allantoin in particular. […] Besides the usual microbial tests, the material was also used in a cytotoxicity assay, which consisted of cycling high water-content soft contact lenses for five days in each test solution. Then the solution saturated lenses were tested in a L929 cell cytotoxicity model. Cytotoxicity was rated from 0 to 5 with 2 or greater indicating cytotoxicity.

[3] = system: Candida albicans; assay: Log kill test of preservative/disinfectant formulae (challenge inoculum, plating over time)
Description: as §1
(§2) The method for evaluating the effectiveness of a disinfectant for contact lenses generally requires measuring the ability of the agent to reduce the numbers of viable infective organisms during a period of time consistent with the normal period of storage of contact lenses between wearing times. This reduction of numbers of organisms is typically reported in terms of the change in the common logarithm (base 10 logarithm) of the microbial population as a result of exposure to the antimicrobial or disinfecting agent. For example, if the agent has effected a reduction in the concentration of a particular organisms in a challenge solution from 10^6 colony forming units (cfu) per milliliter (ml) to 10^2 cfu/ml within six hours of exposure then the change, or “log reduction”, of the organism as a result of exposure to the agent would be 4.0 (logs). In other words, the number of viable organisms have been reduced to one ten-thousandth of the original level.
(§3) In procedures for verifying the effectiveness of ophthalmic antimicrobial agents generally recognized guidelines call for the use of Candida albicans (a yeast), Fusarium solani or Aspergillus niger (both molds), Pseudomonas aeruginosa (a Gram-negative bacterium), Staphylococcus aureus (a Gram-positive bacterium), Serratia marcescens (a Gram-negative bacterium) and Escherichia coli (a bacterium common in the human gastrointestinal tract).
(§4) Various compounds/extracts were tested in the presence of either a phosphate or a borate-buffered solution. The test organisms included (S. aureus.=Staphylococcus aureus; Ps. aeruginosa=Pseudomonas aeruginosa; E. coli=Escherichia coli; C. albicans.=Candida albicans; and A. niger=Aspergillus niger) and inspected at various time intervals to determine the “log kill” of the various formulations.

[4] = system: Aspergillus niger; assay: as above
Description: as §1, §2, §3, §4

[5] = system: Staphylococcus aureus; assay: as above
Description: as §1, §2, §3, §4

[6] = system: S. aureus, Ps. aeruginosa, E. coli, C. albicans, A. niger; assay: Preservative/disinfectant effectiveness against the panel of test organisms (USP Category 1A Preservative Effectiveness Test); conditions: for Effective Concentration (ppm) meeting the USP Category 1A Preservative Effectiveness Test requirements: summary of formulae that meet the requirements
Description: as §1, §3, §4
A recognized standard for evaluating the effectiveness of a preservation agent in contain in the USP. For the reader's convenience the formulae, which meet the USP Category 1A Preservative Effectiveness Test requirements, are summarized in Table 10.

[7] = Cytotoxicity test, USP 24 <87> Biological Reactivity Tests, In Vitro, USP Elution
Method: Cytotoxicity studies were also performed to determine the potential of these natural compounds, extracts and derivatives for irritation and discomfort when used as disinfecting or preservative agents. The cytotoxicity test analysis was performed in accordance with USP 24 <87> Biological Reactivity Tests, In Vitro, and USP Elution. Two ml of each sample were diluted with 10 ml of 1× MEM. The biological reactivity were described and rated as 0 (no reactivity), 1 (slight reactivity), 2 (mild reactivity), 3 (moderate reactivity), 4 (severe reactivity).

**Q.** For `NC(=O)NC1NC(=O)NC1=O` (centres unmarked) [Allantoin], which “Effectiveness against Serratia marcescens, in words” value [1] is on record?
**A.** Its value is “effective to augment the killing”.

**Q.** And the “Cytotoxicity in L929 cell model, in words” value ([2]; lenses cycled five days in test solution)?
**A.** Its value is “mitigate the cytotoxic characteristics of PHMB”.

**Q.** And the “Effectiveness against Candida albicans, in words” value [3]?
**A.** Its value is “quite effective”.

**Q.** And the “Effectiveness against Aspergillus niger, in words” value [4]?
**A.** The value was “quite effective”.

**Q.** Which results are given for `COc1ccc2cc3[n+](cc2c1OC)CCc1cc2c(cc1-3)OCO2` [Berberine]?
**A.** Effectiveness against Staphylococcus aureus, in words [5]: remarkably effective; Effectiveness against Candida albicans, in words [3]: remarkably effective; Effectiveness against Aspergillus niger, in words [4]: remarkably effective

**Q.** For `O=C(/C=C/c1ccc(O)c(O)c1)O[C@@H]1C[C@](O)(C(=O)O)C[C@@H](O)[C@H]1O` [Chlorogenic Acid], which “Overall disinfectant/preservative effectiveness against the test organisms, in words” value [6] is on record?
**A.** Its value is “quite effective”.

**Q.** And the “Effective Concentration (ppm) meeting the USP Category 1A Preservative Effectiveness Test requirements” value [6]?
**A.** The value was 1000 ppm.

**Q.** What does the source list for `COc1cc(/C=C/C(=O)O)ccc1O` [Ferulic Acid]?
**A.** Overall disinfectant/preservative effectiveness against the test organisms, in words [6]: quite effective; Effective Concentration (ppm) meeting the USP Category 1A Preservative Effectiveness Test requirements [6]: 1000 ppm; Effectiveness against Candida albicans, in words [3]: better activity

**Q.** For `OCCc1ccc(O)c(O)c1` [Hydroxytyrosol, 3,4-dihydroxy-phenylethanol], which “Effective Concentration (ppm) meeting the USP Category 1A Preservative Effectiveness Test requirements” value [6] is on record?
**A.** Its value is 200 ppm.

**Q.** What about the “Grade (biological reactivity)” value ([7]; 33.3 ppm) of the same molecule?
**A.** The value was 0.

**Q.** For `C/C=C1/[C@H](O[C@@H]2O[C@H](CO)[C@@H](O)[C@H](O)[C@H]2O)OC=C(C(=O)OC)[C@H]1CC(=O)OCCc1ccc(O)c(O)c1` [Oleuropein], which “Grade (biological reactivity)” value ([7]; 8.3 ppm) is on record?
**A.** Its value is 0.

**Q.** What about the “Grade (biological reactivity)” value ([7]; 33.3 ppm) of the same molecule?
**A.** Its value is 0.

**Q.** And the “Grade (biological reactivity)” value ([7]; 166.7 ppm)?
**A.** The value was 0.

**Q.** For `O.O.O=c1c(O)c(-c2ccc(O)c(O)c2)oc2cc(O)cc(O)c12` [Quercetin Dihydrate], which “Overall disinfectant/preservative effectiveness against the test organisms, in words” value ([6]; statement of the text, listed as Quercetin dihydrate, Dihydrate) is on record?
**A.** The value was “extremely broad effectiveness”.

**Q.** What about the “Overall disinfectant/preservative effectiveness against the test organisms, in words” value ([6]; statement of the text, listed as Quercetin, Dihydrate) of the same molecule?
**A.** The value was “very good to excellent control”.

**Q.** Which “Overall disinfectant/preservative effectiveness against the test organisms, in words” value [6] does the source give for `Oc1ccc(C=Cc2cc(O)cc(O)c2)cc1` [Resveratrol] here?
**A.** Its value is “wide range of effectiveness”.

**Q.** Which “Overall disinfectant/preservative effectiveness against the test organisms, in words” value [6] does the source give for “polyhexamethyl biguanide [PHMB, reference compound]” here?
**A.** The value was “extremely effective against the tested bacteria”.

**Q.** And the “Cytotoxicity in L929 cell model, in words” value [2]?
**A.** Its value is “significant level of cytotoxicity”.

**Q.** What about the “Effectiveness against Candida albicans, in words” value [3] of the same molecule?
**A.** Its value is “only moderately effective”.
